# Measurements taken from ChEMBL document CHEMBL1201862, “PubChem BioAssay data set” (2004).
#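 Following 48 hours of exposure in 96-well plates, responses at five concentrations were used to interpolate endpoints linearly. Abbreviation: GI50, concentration required for 50% inhibition of growth.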 Calls of active or inactive are those of the source. Rule as the data show it: active = GI50 up to about 1.1 µM and inactive = higher.
# Key:
# Experiment in all cases: growth of human tumour cells (NCI), 48 h
# [1] = test system: A549
# [2] = test system: MDA-N
# [3] = test system: NCI-H23
# [4] = test system: SF-539
# [5] = test system: U-251
# [6] = test system: SNB-19
# [7] = test system: SR
# [8] = test system: SF-268
# [9] = test system: ACHN
# [10] = test system: RXF 393
# [11] = test system: CCRF-CEM
# [12] = test system: MCF7
# [13] = test system: KM12
# [14] = test system: COLO 205
# [15] = test system: SK-MEL-28
# [16] = test system: A498
# [17] = test system: T47D
# [18] = test system: 786-0
# [19] = test system: MOLT-4
# [20] = test system: RPMI-8226
# [21] = test system: DU-145
# [22] = test system: SF-295
# [23] = test system: K562
# [24] = test system: SNB-75
# [25] = test system: IGROV-1
# [26] = test system: Hs-578T
# [27] = test system: M14
# [28] = test system: MDA-MB-231
# [29] = test system: UACC-257
# [30] = test system: OVCAR-5
# [31] = test system: Malme-3M
# [32] = test system: HT-29
# [33] = test system: NCI/ADR-RES
# [34] = test system: NCI-H522
# [35] = test system: PC-3
# [36] = test system: UO-31
# [37] = test system: HCT-15
# [38] = test system: HL-60
# [39] = test system: SW-620
# [40] = test system: NCI-H226
# [41] = test system: HCC 2998
# [42] = test system: OVCAR-3
# [43] = test system: EKVX
# [44] = test system: NCI-H460
# [45] = test system: HCT-116
# [46] = test system: SK-MEL-5
# [47] = test system: MDA-MB-435
# [48] = test system: HOP-92
# [49] = test system: LOX IMVI
# [50] = test system: OVCAR-8
# [51] = test system: SN12C
# [52] = test system: HOP-62
# [53] = test system: SK-OV-3
# [54] = test system: CAKI-1
# [55] = test system: OVCAR-4
# [56] = test system: SK-MEL-2
# [57] = test system: UACC-62
# [58] = test system: BT-549
compound,measurement,setting,value
COC(=O)C1=Cc2cc(OC)c(O)cc2[C@@H](c2ccc(O)c(OC)c2)[C@@H]1C(=O)OC,GI50,[1],> 100 µM (inactive)
same,GI50,[2],36.9 µM (inactive)
same,GI50,[3],> 100 µM (inactive)
same,GI50,[4],> 100 µM (inactive)
same,GI50,[5],> 100 µM (inactive)
same,GI50,[6],> 100 µM (inactive)
same,GI50,[7],> 100 µM (inactive)
same,GI50,[8],> 100 µM (inactive)
same,GI50,[9],> 100 µM (inactive)
same,GI50,[10],61.7 µM (inactive)
same,GI50,[11],> 100 µM (inactive)
same,GI50,[12],> 100 µM (inactive)
same,GI50,[13],37.6 µM (inactive)
same,GI50,[14],> 100 µM (inactive)
same,GI50,[15],> 100 µM (inactive)
same,GI50,[16],> 100 µM (inactive)
same,GI50,[17],60.5 µM (inactive)
same,GI50,[18],> 100 µM (inactive)
same,GI50,[19],> 100 µM (inactive)
same,GI50,[20],> 100 µM (inactive)
same,GI50,[21],> 100 µM (inactive)
same,GI50,[22],> 100 µM (inactive)
same,GI50,[23],57.3 µM (inactive)
same,GI50,[24],58.1 µM (inactive)
same,GI50,[25],> 100 µM (inactive)
same,GI50,[26],78.9 µM (inactive)
same,GI50,[27],> 100 µM (inactive)
same,GI50,[28],39.2 µM (inactive)
same,GI50,[29],> 100 µM (inactive)
same,GI50,[30],> 100 µM (inactive)
same,GI50,[31],> 100 µM (inactive)
same,GI50,[32],> 100 µM (inactive)
same,GI50,[33],> 100 µM (inactive)
same,GI50,[34],> 100 µM (inactive)
same,GI50,[35],> 100 µM (inactive)
same,GI50,[36],10.5 µM (inactive)
same,GI50,[37],> 100 µM
same,GI50,[38],> 100 µM (inactive)
same,GI50,[39],> 100 µM (inactive)
same,GI50,[40],> 100 µM (inactive)
same,GI50,[41],> 100 µM (inactive)
same,GI50,[42],> 100 µM (inactive)
same,GI50,[43],> 100 µM (inactive)
same,GI50,[44],> 100 µM (inactive)
same,GI50,[45],> 100 µM (inactive)
same,GI50,[46],43.9 µM (inactive)
same,GI50,[47],45.5 µM (inactive)
same,GI50,[48],53.7 µM (inactive)
same,GI50,[49],> 100 µM (inactive)
same,GI50,[50],> 100 µM (inactive)
same,GI50,[51],> 100 µM (inactive)
same,GI50,[52],> 100 µM (inactive)
COc1cc2c[n+](C)c3c4cc(OC)c(OC)cc4ccc3c2cc1OC,GI50,[53],> 100 µM (inactive)
same,GI50,[1],> 100 µM (inactive)
same,GI50,[54],> 100 µM (inactive)
same,GI50,[9],> 100 µM (inactive)
same,GI50,[55],55.3 µM (inactive)
same,GI50,[11],35.3 µM (inactive)
same,GI50,[56],> 100 µM (inactive)
same,GI50,[14],15.8 µM (inactive)
same,GI50,[57],> 100 µM (inactive)
same,GI50,[15],> 100 µM (inactive)
same,GI50,[18],> 100 µM (inactive)
same,GI50,[20],48 µM (inactive)
same,GI50,[21],25.4 µM (inactive)
same,GI50,[22],> 100 µM (inactive)
same,GI50,[23],26.1 µM (inactive)
same,GI50,[27],> 100 µM (inactive)
same,GI50,[29],> 100 µM (inactive)
same,GI50,[35],72.9 µM (inactive)
same,GI50,[36],> 100 µM (inactive)
same,GI50,[37],> 100 µM
same,GI50,[39],91.2 µM (inactive)
same,GI50,[41],> 100 µM (inactive)
same,GI50,[42],29.1 µM (inactive)
same,GI50,[43],> 100 µM (inactive)
same,GI50,[45],> 100 µM (inactive)
same,GI50,[47],> 100 µM (inactive)
same,GI50,[58],32.1 µM (inactive)
